Entries after “also recorded” stand apart in the source; their conditions may differ.
Key:
ES2 cells = assay: AlamarBlue cell viability assay; type: cell-based; conditions: Homo sapiens, ES-2, incubation 72 h
Experimental: Cell Culture. Human ovarian cancer cell line ES2 was purchased from the American Type Culture Collection, and cells maintained in a humidified incubator at 37°C and 5% CO2 in Dulbecco’s Modified Eagle Medium (DMEM, high glucose, Pyruvate, No Glutamine) (Gibco, cat#21969035), 10% FCS, 1% L-Glutamine (200 mM, ThermoFisher, cat#25-030-081), 1% Pen/Strep (ThermoFisher, cat# […]
AlamarBlue cell viability assay. ES2 cells were plated in sextuplicate wells in a 96-well plate at 3000 cells per well. Compounds were made up as 10 mM stocks in DMSO and added to the cells after 24 h at a range of concentrations (100 µM, 30 µM, 10 µM, 3 µM, 1 µM, 0.3 µM, 0.1 µM, 0.03 µM, 0.01 µM, DMSO only) in 100µl. As a background control 6 wells were plated with media with added DMSO and without cells. After 72 h, 11µl (10%) alamarBlue cell viability reagent (ThermoFisher, cat# DAL1025) was added to each well, including the background control. The plate was incubated at 37°C for 4 h after which the absorbance of the wells was measured with a standard spectrophotometer (Tecan Spark 20M) read at 540nm excitation and 580nm emission wavelength. For each sample the background signal intensity was subtracted from the sample signal intensity and then normalized to the DMSO […]
Subsequent analysis was performed on GraphPad Prism 9 software where the concentrations were converted to a logarithmic scale to which a non -linear regression curve was fitted using the log(inhibitor) vs normalized response with a variable slope model to calculate EC50 values.
Figure S3. EC50 values for compounds 3a – 3n in ES2 cells. Values calculated from 6 technical replicates following incubation for 72 h.
(§1) (1 picture or pasted object on this page, not shown here)

[1] = LC-MS based glutathione (GSH) reactivity assay; type: in vitro ADME; conditions: for conversion to GS-adduct over 24 h / extent of conversion to GS-adducts (in words) / conversion to GS-adduct within 5 min: GSH, ACN:PBS buffer (1:1), 37 °C; for conversion to GS-adduct over 24 h / conversion to GS-adduct within 5 min: LC-MS 254 nm; for extent of conversion to GS-adducts (in words): runs at 5 min, 2 h; for conversion to GS-adduct over 24 h / extent of conversion to GS-adducts (in words): 24 h; for GSH reactivity compared with the electronically similar tag: 3b vs 3a, 3f vs BADY, 3g vs 3e, data not shown
Experimental: LC-MS Assay: To 0.5 ml of GSH (50 mmol) in assay buffer (100 mM PBS in H2O) at 37 °C, 0.5 ml of the diyne tag (5 mmol) in CH3CN was added to give a final concentration of 25 mmol and 2.5 mmol of GSH and diyne tags respectively. A magnetic stirbar was added to the assay mixture and stirred at 37 °C. Aliquots from the assay mixture were pipetted out and diluted for LC-MS (ESI+) submissions at 5 min, 2 h and 24 h time points. The chromatogram peaks at 254 nm were extracted to pick the UV-active [M+H]+ values corresponding to the unreacted tags and GS-Tag adducts. Relative intensity (or % conversion) of GS-Tag adduct compared to the unreacted tag for individual LC -MS run was calculated by taking the percentage of mAUGS-Tag divided by mAUGS-Tag + mAUunreacted tag (if A -> B, then % conversion = B/A+B). When [M+H]+ peak of the unreacted tag was below detectable limits, adduct […]
Figure S4. Overlay of the UV-active chromatograms extracted at 254 nm from the LC-MS runs of 3a, 3d, BADY, 3e, 3j and 3k. The chromatograms for each tag at 5 min (black), 2 h (green), 24 h (red) are overlaid. Minimal (3a, BADY), partial (3e) and full (3d, 3j and 3k) conversion were observed which correlated with the ring electronics. […]
are overlaid in a single graph. Conversion is deemed complete when the tag (M) was below detectable limits. * Tags isolated as a mixture of hetero-and homodimers or insoluble in the assay buffer (3i and 3c) were not included in the study. Tags 3b, 3f and 3g have not been shown as their reactivities were similar to the electronicall y similar 3a, BADY and 3e respectively. […]
as §1

[2] = NMR based GSH-reactivity assay; type: in vitro ADME; conditions: CD3CN:PBS 1:1, 37 °C
Experimental: NMR Assay: To 0.5 ml of assay buffer (1:1 CD3CN : 100 mM PBS in H2O), the individual diyne tags (10 mmol) were added, transferred to an NMR tube and 1H NMR spectra was acquired. To another 0.5 ml of the assay buffer, GSH (100 mmol) was added, which was then transferred to the NMR tube containing the buffer solution of the tags. The solution was mixed by inverting the tube several times. A final solution of 5 mmol tag and 50 mM GSH was achieved, a magnetic stirbar was added to the tubes and the NMR tubes were left on a stirplate at 37 °C. 1H NMR was recorded at 310 K (37 °C) after ~5 min and 24 h of reaction set up.
as §1

Structure (SMILES) | EC50 (ES2 cells) | conversion to GS-adduct over 24 h [1] | extent of conversion to GS-adducts (in words) [1] | GSH reactivity compared with the electronically similar tag [1] | further results
COC(=O)c1ccc(C#CC#Cc2cncn2C)n1C [3 a] | ≥ 100 µM | 1–2% | Minimal | – | change of 1H NMR 24 h post GSH addition [2]: no changes
COC(=O)c1ccc(C#CC#Cc2cncn2C)cc1 [3 b] | ≥ 100 µM | – | – | similar | –
COC(=O)c1ccc(C#CC#Cc2nccs2)cc1 [3 d] | – | reacted completely | complete conversion | – | conversion to GS-adduct within 5 min [1]: ~25%; extent of conversion to GS-adducts (in words) ([1]; listed as 3d): full
COC(=O)c1ccc(C#CC#Cc2ccccn2)cc1 [3 e] | 17.6 µM | ~25% | partial | – | –
COC(=O)c1ccc(C#CC#Cc2cccnc2)cc1 [3 f] | ≥ 100 µM | – | – | similar | –
COC(=O)c1ccc(C#CC#Cc2ccncc2)cc1 [3 g] | 24.1 µM | – | – | similar | –
COC(=O)c1ccc(C#CC#Cc2ccccn2)nc1 [3 i] | 1.63 µM | – | – | – | –
COC(=O)c1ccc(C#CC#Cc2ncccn2)nc1 [3 j] | 0.54 µM | – | complete conversion | – | conversion to GS-adduct within 5 min [1]: reacted completely; also recorded: complete conversion; conversion to GS-adduct within 5 min ([1]; listed as 3j): full conversion; extent of conversion to GS-adducts (in words) ([1]; listed as 3j): full
C(C#Cc1ccccc1)#Cc1ccccc1 [BADY, reference compound] | ≥ 100 µM | 1–2% | Minimal | – | change of 1H NMR 24 h post GSH addition [2]: no changes

— PMC10946950, “Stretching the Bisalkyne Raman Spectral Palette Reveals a New Electrophilic Covalent Motif” (Chemistry (Weinheim an Der Bergstrasse, Germany), 2023)
